Reference: ChEMBL document CHEMBL1128917, “1-O-, 2-O- and 3-O--glycosyl-sn-glycerols: Structure - anti-tumor-promoting activity relationship” (1996)

Columns and labels:
Format in all cases: functional, Homo sapiens
[1] = test system: Raji; test: Tested in vitro for inhibitory activity against TPA induced Epstein-Barr virus antigen activation in Raji cells (1000 mol) for viability
[2] = test system: Raji; test: Tested in vitro for inhibitory activity against TPA induced Epstein-Barr virus antigen activation in Raji cells (10 mol) for positive control
[3] = test system: Raji; test: Tested in vitro for inhibitory activity against TPA induced Epstein-Barr virus antigen activation in Raji cells (100 mol) for positive control
[4] = test system: Raji; test: Tested in vitro for inhibitory activity against TPA induced Epstein-Barr virus antigen activation in Raji cells (500 mol) for positive control
[5] = test system: Raji; test: Tested in vitro for inhibitory activity against TPA induced Epstein-Barr virus antigen activation in Raji cells (1000 mol) for positive control

| SMILES | Viability [1] [%] | EBV antigen activation, % of positive control [2] [%] | EBV antigen activation, % of positive control [3] [%] | EBV-EA activation (% of positive control) [4] [%] | EBV antigen activation, % of positive control [5] [%] |
| --- | --- | --- | --- | --- | --- |
| CO[C@@H]1O[C@H](CO)[C@H](O)[C@H](O)[C@H]1O | 80 | 93.7 | 76.5 | 43.9 | 20.3 |
| CO[C@@H]1O[C@H](CO)C(O)C(O)[C@H]1O (single isomer, unassigned) | 70 | 100 | 70.7 | 54.1 | 22.8 |
| OCC(O)CO[C@@H]1O[C@@H](CO)[C@@H](O)[C@H](O)[C@@H]1O (stereo in doubt; form 1) | 70 | 82.5 | 62.4 | 20.7 | 0 |
| CC(=O)OCC(CO)O[C@@H]1O[C@@H](CO)[C@@H](O)[C@H](O)[C@@H]1O (stereo in doubt; form 1) | – | 94.7 | 71.5 | 32.9 | – |
| OCC(CO)O[C@@H]1O[C@@H](CO)[C@H](O)[C@H](O)[C@@H]1O (stereo in doubt; form 1) | 70 | – | 81 | 45.8 | – |
| OCC(O)CO[C@@H]1O[C@@H](CO)[C@H](O)[C@H](O)[C@@H]1O (stereo in doubt; form 1) | – | 79.1 | 58.2 | 16.5 | – |
| OCC(O)CO[C@@H]1O[C@@H](CO)[C@@H](O)[C@H](O)[C@@H]1O (stereo in doubt; form 2) | – | 90.4 | 68.9 | 27.4 | – |
| CC(=O)OCC(CO)O[C@@H]1O[C@@H](CO)[C@@H](O)[C@H](O)[C@@H]1O (stereo in doubt; form 2) | 70 | 100 | 77.3 | 36.6 | 0 |
| OCC(CO)O[C@@H]1O[C@@H](CO)[C@H](O)[C@H](O)[C@@H]1O (stereo in doubt; form 2) | 80 | 100 | 88.1 | 17.5 | 0 |
| OCC(O)CO[C@@H]1O[C@@H](CO)[C@H](O)[C@H](O)[C@@H]1O (stereo in doubt; form 2) | 70 | 87.5 | 64.6 | 25.8 | 0 |
